# Measured values: patent US20130202649A1, “ACTIVATION OF INNATE IMMUNITY FOR NUCLEAR REPROGRAMMING OF SOMATIC CELLS” (The Board of Trustees of the Leland Stanford Junior …, priority 2012, published 2013)
# Legend:
# [1] = test system: human fibroblasts; experiment: CPP-induced generation of human iPSCs; type: cell-based
# Text: It is known that persistent expression (about 2 weeks) of the reprogramming factors is required using viral vectors to generate mouse iPSCs. […] We hypothesized that activation of the TLR3 pathway might facilitate epigenetic alterations required for full transcriptional effect of the CPPs. We also attempted to mimic the biphasic effect of the reprogramming factors introduced as viral vectors by reducing the dose of CPPs after 6 days. Accordingly, we exposed human fibroblasts to the four CPP-transcription factors (Oct4-R11, Sox2-R11, Klf4-R11 and cMyc-R11) (at a dose of 200 nM for days 1-6, and a dose of 100 nM for days 7-21), in the presence or absence of poly I:C (300 ng/ml) for days 1-6 (FIG. 7A). The cultures were transferred to feeder cells (inactivated MEFs) at day 26. In the presence of poly I:C, Oct4 expression was accelerated (FIG. 7B). […] Small colonies were observed by day 21 and ES like colonies appeared by day 30, many of which expressed TRA-1-81 as indicated by live cell staining. By contrast, in human fibroblasts not exposed to poly I:C, colonies were not observed until day 30 days. By day 40, colony number was increased by more than 4-fold in cells exposed to poly I:C (FIG. 7C). Application of our insights regarding the role of TLR3 signaling in nuclear reprogramming permitted us to successfully reprogram human fibroblasts to pluripotency using CPPs.
# Protein-iPSCs: Recombinant Oct4, Sox2, Klf4, and cMyc human proteins (CPPs) contained an eleven-arginine membrane penetration domain at the C terminus were obtained from Stemgent. Human fibroblasts were treated with CPPs encoding the reprogramming factors (CPP-Oct4, CPP-Sox2, CPP-Klf4 and CPP-Myc) daily for 6 days with 200 nM CPPs, followed by daily treatments of 100 nM CPPs from day 7 to day 20. Poly I:C (300 ng/ml) or vehicle was added to the cell simultaneously only up to day 6. The cells were passed onto MEF feeders at day 30. After 20 days of CPP treatments, wells were closely scanned for colonies.
# Immunostaining of Live Cells For the detection of SSEA-1 or TRA-1-81 in live cells, the primary Ab (anti-mouse SSEA-1, antihuman TRA-1-81, Stemgent) was diluted to a final concentration of 2.5 to 5 μg/ml in fresh cell culture medium and incubated with cells for 30 minutes at 37° C. and 5% CO2. After gentle washing the cells were examined under a fluorescent microscope.
# [2] = test system: NF-κB; experiment: NF-κB luciferase assay; type: cell-based, human; settings: BJ fibroblasts; poly IC 300 ng/ml
# Experimental: NF-κB Luciferase assay BJ fibroblasts (3×105) were seeded in a 6-well plate and subjected to either pMX-GFP infection, CPP-SOX2 treatment with or without poly IC (300 ng/ml). Cells were transfected with pNF-κB-Luc and pFC-MEKK as a positive control plasmid using Lipofectamine 2000. Twentyfour hours post-transfection, cells were collected for measuring the luciferase activity by the Bright-Glo™ Luciferase Assay System using a luminometer.
# [3] = test system: human foreskin fibroblasts (BJ); experiment: Transdifferentiation of human fibroblasts to endothelial cells (FACS); type: cell-based; settings: Poly I:C 30 ng/ml
# Experimental: FIG. 21: Direct reprogramming of human fibroblasts to functional endothelial cells via innate immunity activation and microenvironmental cues: (A) Protocol for direct reprogramming of human BJ fibroblasts to endothelial cells. The figure describes the time course and sequential treatments of different medias: Human fibroblasts were treated with Poly I:C (30 ng/ml) for 7 days in differentiation medium I containing DMEM/FBS and 7.5% knockout serum replacement (KSR). Following 7 days, the medium was changed to differentiation medium II containing DMEM/FBS and 10% KSR containing 20 ng/ml BMP4, 50 ng/ml VEGF and 20 ng/ml bFGF. After another 7 days, the medium was replaced with endothelial medium (EGM2) containing 50 ng/ml VEGF, 20 ng/ml bFGF and 0.1 mM 8-Br-cAMP for another 14 days. The medium was changed every 2-3 days. […] (B) Fluorescent activated cell sorting (FACs) plot of data obtained using CD31+ antibody to quantitate iECs. […]
# Innate immunity (TLR3 signaling) enables efficient transdifferentiation of fibroblasts to ECs: To determine whether TLR3 signaling was necessary for efficient transdifferentiation of human fibroblasts, we assessed direct differentiation in BJ fibroblasts previously treated with scrambled shRNA or shRNA to knockdown (KD) the expression of TLR3. […]
substance,measurement,setting,value
Polyinosinicpolycytidylic acid [Poly I:C],increase in colony number,"[1]; day 40, cells exposed to poly I:C versus not",more than 4 fold
same,Oct4 expression,"[1]; four CPPs 200 nM days 1-6, 100 nM days 7-21, poly I:C 300 ng/ml days 1-6",accelerated
same,iPSC generation,[1]; four CPPs plus poly I:C 300 ng/ml days 1-6,accelerated iPSC generation
same,small colonies observed by,"[1]; four CPPs plus poly I:C 300 ng/ml days 1-6, without poly I:C not until day 30",≤ 21 days
same,NF-κB activation (luciferase reporter),[2],induced NF-κB activation
same,transdifferentiation of fibroblasts to iECs,[3],significantly enhanced
same,cells expressed CD31,"[3]; 28 days of differentiation, FACS, relative to the vehicle control",Approximately 2%
